Measurements: patent US11072601B2, “μ-opioid receptor agonist and preparation method therefor and use thereof in field of medicine” (SHANGHAI SYNERGY PHARMACEUTICAL SCIENCES CO., LTD., priority 2017, dated 2021)

How the values were obtained:
[1] = target: T1, β-arrestin signaling pathway of MOR (Homo sapiens, UniProt P35372); assay: cell-based; settings: PathHunter HEK293 cells, relative to endorphin MAX control
T1 construct: host or cells: HEK293 (PathHunter cell line)

[2] = Pharmacokinetic test in rats, intravenous; format: in vivo; settings: male, SD, rat, plasma, intravenous 1 mg/kg; for AUC: read-out: curve area (AUC); for half-life: read-out: half life (T½) (converted); for Cmax: read-out: plasma concentration (Cmax)
Excerpt: 8-week-old male SD rats weighing 200-300 g were used as experimental animals, and LC/MS/MS method was used to determine the drug concentration in plasma at different times after the administration of the compound of Example H01, the compound of Example H04, the compound of Example H05, the compound of Example H07, the compound of Example H16, the compound of Example H17, the compound of Example H18, the compound of Example H21, and the compound of Example H24. The pharmacokinetic behavior of the compounds of the present invention in rats was studied, and its pharmacokinetic characteristics were evaluated.
A certain amount of the compounds were weighed, and dissolved in ethanol/castor oil/water=10/10/80 to form a uniform solution.
The above compounds were administered intravenously to rats at a dose of 1 mg/kg, and 0.2 ml of blood was collected from the orbit at 0.083, 0.25, 0.5, 1.0, 2.0, 4.0, 6.0, 8.0, 12.0, 24.0 hours before and after administration, and placed in an anticoagulant tube, the plasma was separated by centrifugation at 6,000 rpm for 10 minutes at 4° C., and stored at −80° C.
50 μL of plasma was taken at different times, 150 μL of acetonitrile solution containing internal standard tolbutamide (200 ng/mL) was added, the system was mixed and shaked for 5 minutes, 12000 rpm, centrifuged for 5 minutes, 100 μL of supernatant was removed, and then mixed with 200 μL of water, then the sample was loaded for analysis. The internal standard tolbutamide solid (Aladdin, T129578) powder was dissolved in DMSO to prepare into a 1 mg/mL stock solution. The stock solution was diluted with 100% acetonitrile to obtain a solution of 200 ng/mL as a protein precipitator.
The liquid chromatography system was an LC-20AD UFLC high performance liquid chromatography system (Shimadzu, LC-20AD). The mass spectrometry system was an AB Sciex API4000 triple quadrupole mass spectrometer equipped with an electrospray ionization source (ESI) (Applied Biosystems, Canada). The software used to control the liquid-mass coanalyzer and quantitative analysis was Analyst 1.6 (Applied Biosystems, Canada), and the pharmacokinetic parameters were analyzed using WinNonlin (version 5.2, Pharsight, Mountain View, Calif.) non-compartment model.
Liquid chromatographic separation was performed using AQ-C18 column (50×2.1 mm, internal diameter of […]). The column temperature was maintained at room temperature.
The compound to be tested was dissolved in DMSO to prepare a stock solution with a concentration of 1 mg/mL, and diluted with 70% acetonitrile to obtain a series of standard working solutions with concentrations of 30, 10, 3, 1, 0.3, 0.1, 0.03, and 0.01. μg/mL, and a series of standard quality control solutions (24, 8 and 0.03 μg/mL). 5 μL of standard solution and 45 μL of blank plasma matrix were mixed uniformity to obtain standard solutions (3000, 1000, 300, 100, 30, 10, 3, and 1 ng/mL) and quality control standards (plasma samples: 2400, 800, 80, and 3 ng/mL) at each concentration point of the standard curve.

[3] = target: T2, cAMP pathway of MOR receptor (Homo sapiens, UniProt P35372); assay: cell-based; settings: cAMP Hunter HEK293 cells, forskolin-induced cAMP; read-out: EC50 of cAMP levels affected by agonistic effect on MOR
T2 construct: host or cells: HEK293 (cAMP Hunter cell line)
Excerpt: The purpose of this experiment was to test the agonistic effect of the compounds of the invention on the cAMP pathway of MOR and to evaluate the in vitro activity of the compounds according to EC50.
In this experiment, HitHunter cAMP Assay EFC technology of DiscoverX was used to measure the cAMP level in cells and monitor the functional status of G-protein coupled receptors (GPCRs).
The amount of signal produced was directly proportional to the amount of cAMP in the cell.
The MOR receptor was bound to the inhibitory Gαi protein, so forskolin (for inducing cAMP signal) was used to induce cAMP expression in the experiment, and the inhibitory effect of the compounds on the above induction was measured.
The cAMP Hunter cell line (HEK293, DiscoverX) was removed from the freezer and expanded according to the Cell Standard Operating Procedure (SOP), 20 μL was collected and inoculated into a 384-well microplate and incubated at 37° C. overnight.
The HitHunter cAMP Assay test kit (DiscoverX, 90-0075sm) was used, the kit contained cAMP buffer, cAMP detection solution, and cAMP working solution A.
The formula was used to calculate the percentage of signal activity per well=100%×(1−(average RLU of the test samples−average RLU of the MAX controls)/(average RLU of the solvent controls−average RLU of the MAX controls)). wherein, the MAX control referred to the fluorescence signal value of the endorphin solution, and the solvent control referred to the fluorescence signal value of DMSO. The DiscoveRx CBIS data analysis workstation (ChemInnovation, CA) was used to perform statistical analysis of the percentage of signal activity and the concentration of the compounds by the agonist formula (comes with the software, universal) to calculate the EC50 value.

[4] = target: T3, μ opioid receptor (MOR) (Homo sapiens, UniProt P35372); assay: cell-based; settings: HEK293 stably expressing μ opioid receptor, FLIPR calcium
T3 construct: host or cells: HEK293
Experimental: The purpose of the experiment was to test the agonistic effects of the compounds of the present invention on μ opioid receptor (MOR), κ opioid receptor (KOR) and δ opioid receptor (DOR), and to evaluate in vitro activity of the compounds according to the half-maximal effect concentration (EC50).
This test was performed using HEK293 cell lines (the stably expressed cell lines were provided by WuXi AppTec) which stably expressed μ opioid receptor, δ opioid receptor or κ opioid receptor respectively. […] The cells were centrifuged at 1000 rpm for 5 minutes at room temperature to precipitate. The supernatant was sucked out, be careful not to suck out cells. The precipitate was flicked into the loose cells and resuspend in 45 ml DMEM medium. The Vi-CELL XR automatic cell viability detector (BECKMAN COULTER) was used to count the cells, and the cell concentration was adjusted to 10×10^5 cells/ml based on the counting results.
Preparation of probenecid mother solution: 1 ml of FLIPR test solution was added to 77 mg probenecid to prepare a 250 mM solution. The solution was freshly prepared just before use.
The solution was freshly prepared just before use.
The cell plate prepared above was removed from the incubator and 20 ul 2× Fluo-4 Direct™ buffer was added thereto. The final volume in the cell plate was […]. The plate was incubated at 37° C., under 5% CO2 for 50 minutes, and incubated at room temperature for 10 minutes, then was placed into the FLIPR instrument (MD), and the compound plate and pipette box was placed into. The protocol was run on the […] platform, 10 μl of positive drug or the test compound was transfered to the cell plate from the compound plate, and the fluorescent signal was read.
The signal value generated by each well was calculated, and the calculation formula was that: the activity %=(signal value of the test compound−signal value of the solvent)/(signal value of the positive drug−signal value of the solvent).

[5] = system: SD rats; assay: Respiratory depression in rats, arterial blood gas PCO2; format: in vivo; settings: for PCO2, 5 min before administration: arterial blood; for PCO2, 5 min after administration / PCO2, 30 min after administration / PCO2, 60 min after administration / PCO2, 120 min after administration: intravenous single dose 0.3 mg/kg (morphine 24 mg/kg)
Excerpt: (§1) 8-week-old male SD rats weighing 200 g-300 g were used as experimental animals to determine the effect of the compound of Example H05, the compound of Example H08, the compound of Example H10, the compound of Example H16, the compound of Example H17, the compound of Example H18, the compound of Example H21, and the compound of Example H24 on the partial pressure of blood in rats after intravenous administration. The effects of the compounds of the invention on respiratory depression were investigated.
After the rats were acclimatized to the experimental environment for 3 days, each animal was anesthetized with sodium pentobarbital (50-60 mg/kg, ip), and then the right common carotid artery was isolated and the unilateral carotid artery tube-bury surgery was performed (PE60, ID*OD*length as 0.76 mm*1.22 mm*20 cm, buried into the artery 1 cm deep, and the tube was filled with heparin sodium tube sealing solution).

[6] = system: rat surgical incision injury model; assay: Rat surgical incision injury model, von Frey paw withdrawal threshold; format: in vivo, SD rats; settings: rats, intravenous 0.3 mg/kg
Excerpt: as §1, with “H02,” for “H05,”, “H04,” for “H08,”, “H21” for “H21,”, “surgical pain” for “the partial pressure of blood”, “analgesic effect” for “effects”, “was discussed.” for “of the invention on respiratory depression were investigated.”
A certain amount of the compounds or TRV130 (MCE, 15150) was weighed, and dissolved in ethanol/castor oil/water=10/10/80 as a clear and transparent solution.
Three days after the rats were acclimatized to the experimental environment, the preoperative base value was determined, and followed by the surgical pain operation described below, about 24 hours after the surgery, the basic value was measured before administration on all animals, and mechanically hypersensitive animals (the paw withdrawal threshold (PWT) was less than 5 g) was randomly assigned to each administration group according to PWT. The pain threshold was determined 30 minutes and 60 minutes after intravenous administration of the positive drug TRV130 or each compound of the present invention (at a dose of 0.3 mg/kg).
The surgical procedure was performed aseptically, and the surgical instruments (scissors, tweezers, scalpels, surgical cotton and sutures) were sterilized before surgery. The animals were anesthetized with sodium pentobarbital (50 mg/kg, injected intraperitoneally), and the toes of the animals were squeezed to confirm that the animals were completely anesthetized before surgery. From the position of 0.5 cm away from the heel, an incision about 1 cm was made in the longitudinal direction of the toe. After cutting the skin, the musculus flexor digitorum brevis was raised and a blunt injury was caused longitudinally. After pressing to stop bleeding, the wound was sutured. When the animal was completely awake (free to move), the animal was put back into the cage (the reference of the construction of surgical pain model: Timothy J. Brennan, Erik P. Vandermeulen, G. F. Gebhart. Characterization of a rat model of incisional pain. Pain, 64(1996):493-501).
An up-down method was used for the determination of pain sensitivity. The mechanical pain results were expressed as animal paw withdrawal response threshold (PWT). The rat was placed separately in a plexiglass box with a mesh at the bottom of the box to ensure that the rat's feet could be tested. The rat was acclimatized for 15 minutes before the test, and after the acclimatization, the test fiber (von frey fiber, West coast) was used to test in the middle part of the hind foot of the rat. The test fibers included 8 test strengths: 3.61 (0.4 g), 3.84 (0.6 g), 4.08 (1 g), 4.31 (2 g), 4.56 (4 g), 4.74 (6 g), 4.93 (8 g), and 5.18 (15 g). During the test, the test fiber was pressed vertically against the skin and a force was applied to bend the fiber for 6-8 seconds, at an interval of 5 seconds between each test. During the test, the animal's rapid withdrawal was recorded as a pain response. When the test fiber left the animal's skin, the animal's withdrawal was also recorded as a pain response. Starting from 2 g, depending on whether the rats had any pain response, the test was changed into the next test intensity or the previous test intensity. A series of responses of the rats to different test intensities were recorded. […] Wherein, Xf was the logarithmic value of von Frey fiber used in the last test, and K value was the animal withdrawal reaction mode (recorded during the test), which was the value obtained after looking up the table according to the obtained sequence of “X” and “O”, δ=Mean of logarithmic difference between von Frey fibers used in the test.

T1 sequence (P35372 whole entry): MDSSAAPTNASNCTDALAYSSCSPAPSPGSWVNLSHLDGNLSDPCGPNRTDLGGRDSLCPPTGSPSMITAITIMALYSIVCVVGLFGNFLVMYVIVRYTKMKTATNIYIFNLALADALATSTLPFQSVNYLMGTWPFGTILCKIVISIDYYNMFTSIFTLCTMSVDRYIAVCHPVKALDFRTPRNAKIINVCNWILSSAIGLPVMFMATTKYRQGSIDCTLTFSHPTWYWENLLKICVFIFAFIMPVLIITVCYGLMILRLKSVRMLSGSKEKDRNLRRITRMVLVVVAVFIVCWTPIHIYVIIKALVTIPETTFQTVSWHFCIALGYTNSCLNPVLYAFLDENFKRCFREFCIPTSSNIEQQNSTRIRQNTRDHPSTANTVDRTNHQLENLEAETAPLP
T2 sequence (P35372 whole entry): as above
T3 sequence (P35372 whole entry, species assumed): as the sequence (P35372 whole entry) above

SMILES	Emax [1] [%]	AUC [2] [ng·h/mL]	half-life [2] [h]	Cmax [2] [ng/mL]	EC50 [3] [nM]	EC50 [4] [nM]	PCO2, 5 min before administration [5] [mmHg]	PCO2, 5 min after administration [5] [mmHg]	PCO2, 30 min after administration [5] [mmHg]	PCO2, 60 min after administration [5] [mmHg]	PCO2, 120 min after administration [5] [mmHg]	50% PWT, 30 min after administration ([6]; 30 min) [g]	50% PWT, 60 min after administration ([6]; 60 min) [g]
Cc1ccc(CNCCC2(c3ccccn3)CCOC3(CCCC3)C2)cc1C (stereo not drawn) [Example H07, (3,4-dimethylbenzyl)-[2-(9-(pyridin-2-yl)-6-oxaspiro[4.5]decan-9-yl)ethyl]amine]	1.55	583 ± 31.8	1.25 ± 0.05	483 ± 33.3	3.08	3.15							
Clc1ccsc1CNCCC1(c2ccccn2)CCOC2(CCCC2)C1 (stereo not drawn) [Example H05, ((3-chloro-thiophen-2-yl)methyl)-[2-(9-(pyridin-2-yl)-6-oxaspiro[4.5]decan-9-yl)ethyl]amine]	0	336 ± 14.1	3.93 ± 0.13	261 ± 21	10.2	7.05	35.65 ± 0.44	36.15 ± 1.93	33.65 ± 0.49	34.85 ± 0.43	35.7 ± 0.95		
FC(F)(F)Oc1cccc(CNCCC2(c3ccccn3)CCOC3(CCCC3)C2)c1 (stereo not drawn) [Example H01, (3-trifluoromethoxybenzyl)-[2-(9-(pyridin-2-yl)-6-oxaspiro[4.5]decan-9-yl)ethyl]amine]	6.26	295 ± 1	1.11 ± 0.24	202 ± 33.5	4.93	6.71							
COc1ccsc1CNCC[C@@]1(c2ccccn2)CCOC2(CCCC2)C1 [TRV130, reference compound]												6.05 ± 0.44	5.71 ± 0.33
Cc1ccc(CNCCC2(c3ccccn3)CCOC3(CCCC3)C2)c(C)c1 (stereo not drawn) [Example H08, (2,4-dimethylbenzyl)-[2-(9-(pyridin-2-yl)-6-oxaspiro[4.5]decan-9-yl)ethyl]amine]	3.8				4.77	3.42	33.77 ± 0.88	35.48 ± 1.54	34.03 ± 0.69	34.27 ± 1.4	34.83 ± 1.15		
